In ChEMBL document CHEMBL3885881, “DrugMatrix”:

Species on record: Rattus norvegicus
Experiment: DrugMatrix - Regimen: Daily Repeat
Assay type: toxicity, organism-based, Sprague-Dawley
Set-up: regimen Daily Repeat, gender Male, age 6-8 weeks
Settings: in vivo, po, 0 mg/kg, route oral GAVAGE, dose level Control, vehicle .5 % CMC; for ABSOLUTE BASOPHIL / ABSOLUTE EOSINOPHIL / ABSOLUTE LYMPHOCYTE / ABSOLUTE MONOCYTE / ABSOLUTE SEGMENTED NEUTROPHIL / BASOPHIL / EOSINOPHIL / ERYTHROCYTE COUNT / HEMATOCRIT / HEMOGLOBIN / LEUKOCYTE COUNT / LYMPHOCYTE / MEAN CORPUSCULAR HEMOGLOBIN / MEAN CORPUSCULAR HEMOGLOBIN CONCENTRATION / MONOCYTE / NEUTROPHIL / NUCLEATED RED BLOOD CELLS / PLATELET COUNT: tissue Blood; for ALANINE AMINOTRANSFERASE / ALBUMIN / ALKALINE PHOSPHATASE / ASPARTATE AMINOTRANSFERASE / BLOOD UREA NITROGEN / CARBON DIOXIDE / CHLORIDE / CHOLESTEROL / CREATINE PHOSPHOKINASE / CREATININE / GLUCOSE / LACTATE DEHYDROGENASE / LIPASE / PHOSPHORUS / POTASSIUM / SODIUM / TOTAL BILIRUBIN / TOTAL PROTEIN / URIC ACID: tissue Plasma

In the case of C[C@H]1[C@H](NC(=O)/C(=N\OC(C)(C)C(=O)O)c2csc(N)n2)C(=O)N1S(=O)(=O)O [AZTREONAM], the “ABSOLUTE BASOPHIL” value (72 h, time 3 day) is reported as 0 CELLS/uL, the “ABSOLUTE EOSINOPHIL” value (72 h, time 3 day) is reported as 222.83 CELLS/uL and the “ABSOLUTE LYMPHOCYTE” value (72 h, time 3 day) is reported as 14453 CELLS/uL. The “ABSOLUTE MONOCYTE” value (72 h, time 3 day) was 0 CELLS/uL, the “ABSOLUTE SEGMENTED NEUTROPHIL” value (72 h, time 3 day) was 1490.83 CELLS/uL and the BASOPHIL (72 h, time 3 day) was 0%. The EOSINOPHIL (72 h, time 3 day) was 1.33%, the “ERYTHROCYTE COUNT” value (72 h, time 3 day) was 5.76 x10E6/uL and the HEMATOCRIT (72 h, time 3 day) was 36.52%. The HEMOGLOBIN (72 h, time 3 day) was 13.45 G/DL, the “LEUKOCYTE COUNT” value (72 h, time 3 day) was 16.17 x10E3/uL and the LYMPHOCYTE (72 h, time 3 day) was 89.33%. For the same compound, the “MEAN CORPUSCULAR HEMOGLOBIN” value (72 h, time 3 day) was 23.37 pg, the “MEAN CORPUSCULAR HEMOGLOBIN CONCENTRATION” value (72 h, time 3 day) was 36.85 G/DL and the MONOCYTE (72 h, time 3 day) was 0%. For the same compound, the NEUTROPHIL (72 h, time 3 day) was 9.33%, the “NUCLEATED RED BLOOD CELLS” value (72 h, time 3 day) was 0 /100WBC and the “PLATELET COUNT” value (72 h, time 3 day) was 1239.5 x10E3/uL. For the same compound, the “ALANINE AMINOTRANSFERASE” value (72 h, time 3 day) was 43.83 u/L, the ALBUMIN (72 h, time 3 day) was 4.27 G/DL and the “ALKALINE PHOSPHATASE” value (72 h, time 3 day) was 398.83 u/L. For the same compound, the “ASPARTATE AMINOTRANSFERASE” value (72 h, time 3 day) was 81.17 u/L, the “BLOOD UREA NITROGEN” value (72 h, time 3 day) was 17.67 mg/dL and the “CARBON DIOXIDE” value (72 h, time 3 day) was 27.5 mmol/L. The CHLORIDE (72 h, time 3 day) was 99.17 MEQ/L, the CHOLESTEROL (72 h, time 3 day) was 74 mg/dL and the “CREATINE PHOSPHOKINASE” value (72 h, time 3 day) was 331.5 u/L. The CREATININE (72 h, time 3 day) was 0.2 mg/dL, the GLUCOSE (72 h, time 3 day) was 171.33 mg/dL and the “LACTATE DEHYDROGENASE” value (72 h, time 3 day) was 241.67 u/L. It also gave an LIPASE (72 h, time 3 day) of 9.5 u/L, a PHOSPHORUS (72 h, time 3 day) of 12.25 mg/dL and a POTASSIUM (72 h, time 3 day) of 6.33 MEQ/L. The SODIUM (72 h, time 3 day) was 141.28 MEQ/L, the “TOTAL BILIRUBIN” value (72 h, time 3 day) was 0.15 mg/dL and the “TOTAL PROTEIN” value (72 h, time 3 day) was 5.98 G/DL. For the same compound, the “URIC ACID” value (72 h, time 3 day) was 1.63 mg/dL, the “ABSOLUTE BASOPHIL” value (120 h, time 5 day) was 0 CELLS/uL and the “ABSOLUTE EOSINOPHIL” value (120 h, time 5 day) was 148.67 CELLS/uL. The “ABSOLUTE LYMPHOCYTE” value (120 h, time 5 day) was 16020.5 CELLS/uL, the “ABSOLUTE MONOCYTE” value (120 h, time 5 day) was 29.17 CELLS/uL and the “ABSOLUTE SEGMENTED NEUTROPHIL” value (120 h, time 5 day) was 1468.33 CELLS/uL. For the same compound, the BASOPHIL (120 h, time 5 day) was 0%, the EOSINOPHIL (120 h, time 5 day) was 1% and the “ERYTHROCYTE COUNT” value (120 h, time 5 day) was 5.78 x10E6/uL. The HEMATOCRIT (120 h, time 5 day) was 35.77%, the HEMOGLOBIN (120 h, time 5 day) was 13.4 G/DL and the “LEUKOCYTE COUNT” value (120 h, time 5 day) was 17.67 x10E3/uL. For the same compound, the LYMPHOCYTE (120 h, time 5 day) was 90.5%, the “MEAN CORPUSCULAR HEMOGLOBIN” value (120 h, time 5 day) was 23.22 pg and the “MEAN CORPUSCULAR HEMOGLOBIN CONCENTRATION” value (120 h, time 5 day) was 37.47 G/DL. The MONOCYTE (120 h, time 5 day) was 0.17%, the NEUTROPHIL (120 h, time 5 day) was 8.33% and the “NUCLEATED RED BLOOD CELLS” value (120 h, time 5 day) was 0.17 /100WBC. For the same compound, the “PLATELET COUNT” value (120 h, time 5 day) was 1255.5 x10E3/uL, the “ALANINE AMINOTRANSFERASE” value (120 h, time 5 day) was 46.5 u/L and the ALBUMIN (120 h, time 5 day) was 4.38 G/DL. For the same compound, the “ALKALINE PHOSPHATASE” value (120 h, time 5 day) was 336 u/L, the “ASPARTATE AMINOTRANSFERASE” value (120 h, time 5 day) was 76.5 u/L and the “BLOOD UREA NITROGEN” value (120 h, time 5 day) was 20 mg/dL. For the same compound, the “CARBON DIOXIDE” value (120 h, time 5 day) was 27.5 mmol/L, the CHLORIDE (120 h, time 5 day) was 101 MEQ/L and the CHOLESTEROL (120 h, time 5 day) was 71.33 mg/dL. For the same compound, the “CREATINE PHOSPHOKINASE” value (120 h, time 5 day) was 231.83 u/L, the CREATININE (120 h, time 5 day) was 0.37 mg/dL and the GLUCOSE (120 h, time 5 day) was 168.83 mg/dL. The “LACTATE DEHYDROGENASE” value (120 h, time 5 day) was 174 u/L, the LIPASE (120 h, time 5 day) was 8.67 u/L and the PHOSPHORUS (120 h, time 5 day) was 11.48 mg/dL. For the same compound, the POTASSIUM (120 h, time 5 day) was 6.82 MEQ/L, the SODIUM (120 h, time 5 day) was 143.8 MEQ/L and the “TOTAL BILIRUBIN” value (120 h, time 5 day) was 0.2 mg/dL. The “TOTAL PROTEIN” value (120 h, time 5 day) was 5.98 G/DL and the “URIC ACID” value (120 h, time 5 day) was 1.83 mg/dL.
